ChEMBL document CHEMBL4622897, “Synthesis and biological evaluation of backbone-aminated analogues of gramicidin S” (Bioorg Med Chem Lett, 2020)
Numbered stars: 1 amine (or outer) side, 2 acyl side, 3 side chain; on linkers, the order of the positions; unused ones are H or OH. Square brackets hold non-standard residues; d marks the D form. Peptide text beside a SMILES is read from it. X1 = NN([C@H](Cc1ccccc1)C(=O)[*:2])[*:1]; Orn(Nα-NH2) = NCCC[C@H](NN)C(=O)O; Orn = NCCC[C@H](N)C(=O)O

What was measured:
Klebsiella pneumoniae = assay: Antibacterial activity against Klebsiella pneumoniae 1433 assessed as growth inhibition by microbroth dilution assay; format: functional
Staphylococcus aureus = assay: Antibacterial activity against Staphylococcus aureus 635 assessed as growth inhibition by microbroth dilution assay; format: functional
Enterobacter cloacae = assay: Antibacterial activity against Enterobacter cloacae 1454 assessed as growth inhibition by microbroth dilution assay; format: functional
Acinetobacter baumannii = assay: Antibacterial activity against Acinetobacter baumannii 5075 assessed as growth inhibition by microbroth dilution assay; format: functional; conditions: AB5075
Enterococcus faecium = assay: Antibacterial activity against Enterococcus faecium 1450 assessed as growth inhibition by microbroth dilution assay; format: functional
[1] = Hemolytic activity in human RBC assessed as hemolysis at 50 uM relative to control; format: ADME, cell-based, Erythrocyte; conditions: red blood cells (erythrocytes), read-out: Activity
Pseudomonas aeruginosa = assay: Antibacterial activity against Pseudomonas aeruginosa 1419 assessed as growth inhibition by microbroth dilution assay; format: functional
Erythrocyte = assay: Hemolytic activity in human RBC assessed as hemolysis at 50 uM; format: ADME, cell-based

MIC (Klebsiella pneumoniae) [µM] | MIC (Staphylococcus aureus) [µM] | MIC (Enterobacter cloacae) [µM] | MIC (Acinetobacter baumannii) [µM] | MIC (Enterococcus faecium) [µM] | MIC (Pseudomonas aeruginosa) [µM] | Structure (SMILES) | hemolysis at 50 µM [1] [%] | Activity (Erythrocyte)
45 | 2 | 20 | 4 | 2 | 10 | CC(C)C[C@@H]1NC(=O)[C@H](CCCN)N(N)C(=O)[C@H](C(C)C)NC(=O)[C@@H]2CCCN2C(=O)[C@@H](Cc2ccccc2)NC(=O)[C@H](CC(C)C)NC(=O)[C@H](CCCN)N(N)C(=O)[C@H](C(C)C)NC(=O)[C@@H]2CCCN2C(=O)[C@@H](Cc2ccccc2)NC1=O (cyclo(L[dF]PV[Orn(Nα-NH2)]L[dF]PV[Orn(Nα-NH2)])) | 16 | –
50 | 3 | 35 | 6.5 | 3 | 20 | CC(C)C[C@@H]1NC(=O)[C@H](CCCN)NC(=O)[C@H](C(C)C)NC(=O)[C@@H]2CCCN2C(=O)[C@@H](Cc2ccccc2)N(N)C(=O)[C@H](CC(C)C)NC(=O)[C@H](CCCN)N(N)C(=O)[C@H](C(C)C)NC(=O)[C@@H]2CCCN2C(=O)[C@@H](Cc2ccccc2)N(N)C1=O (cyclo(L[X1]PV[Orn]L[X1]PV[Orn(Nα-NH2)])) | – | –
45 | 2 | 30 | 6.5 | 3 | 15 | CC(C)C[C@@H]1NC(=O)[C@H](CCCN)N(N)C(=O)[C@H](C(C)C)NC(=O)[C@@H]2CCCN2C(=O)[C@@H](Cc2ccccc2)N(N)C(=O)[C@H](CC(C)C)NC(=O)[C@H](CCCN)NC(=O)[C@H](C(C)C)NC(=O)[C@@H]2CCCN2C(=O)[C@@H](Cc2ccccc2)NC1=O (cyclo(L[dF]PV[Orn]L[X1]PV[Orn(Nα-NH2)])) | – | –
> 50 | 4 | > 50 | 12.5 | 4 | 35 | CC(C)C[C@@H]1NC(=O)[C@H](CCCN)NC(=O)[C@H](C(C)C)NC(=O)[C@@H]2CCCN2C(=O)[C@@H](Cc2ccccc2)N(N)C(=O)[C@H](CC(C)C)NC(=O)[C@H](CCCN)NC(=O)[C@H](C(C)C)NC(=O)[C@@H]2CCCN2C(=O)[C@@H](Cc2ccccc2)N(N)C1=O (cyclo(L[X1]PV[Orn]L[X1]PV[Orn])) | – | Toxic
> 50 | 2 | > 50 | 6 | 2 | 12 | CC(C)C[C@@H]1NC(=O)[C@H](CCCN)N(N)C(=O)[C@H](C(C)C)NC(=O)[C@@H]2CCCN2C(=O)[C@@H](Cc2ccccc2)N(N)C(=O)[C@H](CC(C)C)NC(=O)[C@H](CCCN)N(N)C(=O)[C@H](C(C)C)NC(=O)[C@@H]2CCCN2C(=O)[C@@H](Cc2ccccc2)NC1=O (cyclo(L[dF]PV[Orn(Nα-NH2)]L[X1]PV[Orn(Nα-NH2)])) | – | –
45 | 2 | 15 | 6.5 | 3 | 15 | CC(C)C[C@@H]1NC(=O)[C@H](CCCN)NC(=O)[C@H](C(C)C)NC(=O)[C@@H]2CCCN2C(=O)[C@@H](Cc2ccccc2)N(N)C(=O)[C@H](CC(C)C)NC(=O)[C@H](CCCN)N(N)C(=O)[C@H](C(C)C)NC(=O)[C@@H]2CCCN2C(=O)[C@@H](Cc2ccccc2)NC1=O (cyclo(L[dF]PV[Orn(Nα-NH2)]L[X1]PV[Orn])) | – | –
45 | 4 | 40 | 6 | 5 | 20 | CC(C)C[C@@H]1NC(=O)[C@H](CCCN)NC(=O)[C@H](C(C)C)NC(=O)[C@@H]2CCCN2C(=O)[C@@H](Cc2ccccc2)N(N)C(=O)[C@H](CC(C)C)NC(=O)[C@H](CCCN)NC(=O)[C@H](C(C)C)NC(=O)[C@@H]2CCCN2C(=O)[C@@H](Cc2ccccc2)NC1=O (cyclo(L[dF]PV[Orn]L[X1]PV[Orn])) | – | –
> 50 | 2 | > 50 | 5 | 2 | 15 | CC(C)C[C@@H]1NC(=O)[C@H](CCCN)N(N)C(=O)[C@H](C(C)C)NC(=O)[C@@H]2CCCN2C(=O)[C@@H](Cc2ccccc2)N(N)C(=O)[C@H](CC(C)C)NC(=O)[C@H](CCCN)N(N)C(=O)[C@H](C(C)C)NC(=O)[C@@H]2CCCN2C(=O)[C@@H](Cc2ccccc2)N(N)C1=O (cyclo(L[X1]PV[Orn(Nα-NH2)]L[X1]PV[Orn(Nα-NH2)])) | – | Toxic
40 | 2 | 30 | 6.5 | 3 | 13 | CC(C)C[C@@H]1NC(=O)[C@H](CCCN)NC(=O)[C@H](C(C)C)NC(=O)[C@@H]2CCCN2C(=O)[C@@H](Cc2ccccc2)NC(=O)[C@H](CC(C)C)NC(=O)[C@H](CCCN)N(N)C(=O)[C@H](C(C)C)NC(=O)[C@@H]2CCCN2C(=O)[C@@H](Cc2ccccc2)NC1=O (cyclo(L[dF]PV[Orn]L[dF]PV[Orn(Nα-NH2)])) | – | –
– | – | – | – | – | – | CC(C)C[C@@H]1NC(=O)[C@H](CCCN)NC(=O)[C@H](C(C)C)NC(=O)[C@@H]2CCCN2C(=O)[C@@H](Cc2ccccc2)NC(=O)[C@H](CC(C)C)NC(=O)[C@H](CCCN)NC(=O)[C@H](C(C)C)NC(=O)[C@@H]2CCCN2C(=O)[C@@H](Cc2ccccc2)NC1=O (cyclo(L[dF]PV[Orn]L[dF]PV[Orn])) | 22 | –

Structure (SMILES) | MIC (Klebsiella pneumoniae) [µM] | MIC (Staphylococcus aureus) [µM] | MIC (Enterobacter cloacae) [µM] | MIC (Acinetobacter baumannii) [µM] | MIC (Enterococcus faecium) [µM] | MIC (Pseudomonas aeruginosa) [µM] | hemolysis at 50 µM [1] [%] | Activity (Erythrocyte)
CC(C)C[C@@H]1NC(=O)[C@H](CCCN)NC(=O)[C@H](C(C)C)NC(=O)[C@@H]2CCCN2C(=O)[C@@H](Cc2ccccc2)NC(=O)[C@H](CC(C)C)NC(=O)[C@H](CCCN)NC(=O)[C@H](C(C)C)NC(=O)[C@@H]2CCCN2C(=O)[C@@H](Cc2ccccc2)NC1=O (cyclo(V[Orn]L[dF]PV[Orn]L[dF]P)) | 40 | 3 | 35 | 6.5 | 3 | 20 | – | –
